Reference: the supplement of paper PMC11061612

Columns and labels:
Assay in all cases: Bliss excess, mean over the matrix (fraction); higher = more synergy
H4 (Low Grade Glioma) = tested on: H4 (Low Grade Glioma)
Outline: (§1)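 Bliss excess equals the observed combination effect minus the expected value EA + EB − EA·EB, where EA and EB are the effects of each agent alone. Combination Emax is the second-highest inhibition within the matrix. Inhibition was scaled from CellTiter-Glo 2.0 luminescence, with 0 set by vehicle wells and 1 by blank wells, after 72 hours of two-drug dosing of cells plated in 1536-well plates.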

[1] = tested on: GDM-1 (Acute Myeloid Leukemia)
Outline: as §1

[2] = tested on: RCC10RGB (Kidney Carcinoma)
Outline: as §1

[3] = tested on: SW48 (Colorectal Carcinoma)
Outline: as §1

[4] = tested on: ETK-1 (Biliary Tract Carcinoma)
Outline: as §1

[5] = tested on: KG-1 (Acute Myeloid Leukemia)
Outline: as §1

[6] = tested on: MEG-01 (Chronic Myelogenous Leukemia)
Outline: as §1

MSTO-211H (Mesothelioma) = tested on: MSTO-211H (Mesothelioma)
Outline: as §1

[7] = tested on: SNG-M (Endometrial Carcinoma)
Outline: as §1

[8] = tested on: SK-LMS-1 (Other Solid Carcinomas)
Outline: as §1

D-392MG (Glioblastoma) = tested on: D-392MG (Glioblastoma)
Outline: as §1

[9] = tested on: EFM-192A (Breast Carcinoma)
Outline: as §1

SK-MEL-1 (Melanoma) = tested on: SK-MEL-1 (Melanoma)
Outline: as §1

[10] = tested on: TYK-nu (Ovarian Carcinoma)
Outline: as §1

[11] = tested on: CAL-39 (Other Solid Carcinomas)
Outline: as §1

[12] = tested on: SNU-61 (Colorectal Carcinoma)
Outline: as §1

[13] = tested on: P31-FUJ (Acute Myeloid Leukemia)
Outline: as §1

EW-22 (Ewing's Sarcoma) = tested on: EW-22 (Ewing's Sarcoma)
Outline: as §1

HuO9 (Osteosarcoma) = tested on: HuO9 (Osteosarcoma)
Outline: as §1

[14] = tested on: SLVL (B-Cell Non-Hodgkin's Lymphoma)
Outline: as §1

Structure (SMILES) | Bliss excess (H4 (Low Grade Glioma)) | Bliss excess [1] | Bliss excess [2] | Bliss excess [3] | Bliss excess [4] | Bliss excess [5] | Bliss excess [6] | Bliss excess (MSTO-211H (Mesothelioma)) | Bliss excess [7] | Bliss excess [8] | Bliss excess (D-392MG (Glioblastoma)) | Bliss excess [9] | Bliss excess (SK-MEL-1 (Melanoma)) | Bliss excess [10] | Bliss excess [11] | Bliss excess [12] | Bliss excess [13] | Bliss excess (EW-22 (Ewing's Sarcoma)) | Bliss excess (HuO9 (Osteosarcoma)) | Bliss excess [14]
COc1cccc(OCCCN)c1-c1cc(Nc2cnc(C#N)cn2)n[nH]1 [Prexasertib] + C[C@@H]1COCCN1C2=NC(=NC(=C2)C3(CC3)[S@](=N)(=O)C)C4=C5C=CNC5=NC=C4 [AZD6738] (first compound max 1 µM, 7x7, partner max 10 µM) | 0.0311 | -0.0333 | 0.0657 | 0.0015 | -0.0028 | -0.0531 | -0.0542 | -0.0197 | 0.0329 | -0.029 | 0.0355 | 0.0131 | -0.015 | -0.0604 | 0.0251 | -0.0693 | 0.0092 | -0.0326 | -0.0638 | -0.0455
CC1(C)CCC(CN2CCN(c3ccc(C(=O)NS(=O)(=O)c4ccc(NCC5CCOCC5)c([N+](=O)[O-])c4)c(Oc4cnc5[nH]ccc5c4)c3)CC2)=C(c2ccc(Cl)cc2)C1 [Venetoclax] + C[C@@H]1COCCN1C2=NC(=NC(=C2)C3(CC3)[S@](=N)(=O)C)C4=C5C=CNC5=NC=C4 [AZD6738] (first compound max 1 µM, 7x7, partner max 10 µM) | -0.0301 | -0.0163 | -0.0242 | -0.0398 | -0.0562 | 0.075 | -0.0256 | -0.0344 | -0.0296 | -0.0884 | -0.0807 | -0.0377 | -0.027 | -0.0315 | -0.026 | 0.0295 | 0.0498 | -0.0189 | 0.0275 | -0.0162
COc1cc2ncnc(Nc3ccc(F)c(Cl)c3)c2cc1OCCCN1CCOCC1 [Gefitinib] + CC(C)n1c(=O)n(C)c2cnc3cc(F)c(-c4ccc(OCCCN5CCCCC5)nc4)cc3c21 [AZD1390] (first compound max 10 µM, 7x7, partner max 0.3 µM) | -0.0806 | -0.0833 | -0.0999 | -0.0516 | -0.11 | -0.0507 | -0.058 | -0.0571 | -0.109 | -0.0726 | -0.086 | -0.0752 | 0.0081 | -0.0851 | -0.0004 | -0.0929 | -0.0201 | -0.0252 | -0.058 | -0.0591
NC1(C(=O)N[C@@H](CCO)c2ccc(Cl)cc2)CCN(c2ncnc3[nH]ccc23)CC1 [Capivasertib] + CC(C)n1c(=O)n(C)c2cnc3cc(F)c(-c4ccc(OCCCN5CCCCC5)nc4)cc3c21 [AZD1390] (first compound max 10 µM, 7x7, partner max 0.3 µM) | -0.0638 | -0.0904 | -0.0676 | -0.0345 | -0.0189 | -0.0386 | -0.0245 | -0.0905 | -0.0484 | -0.045 | -0.0645 | -0.062 | -0.0207 | -0.116 | -0.0731 | -0.064 | -0.169 | -0.0613 | -0.0009 | -0.0671
CC1(C)CCC(CN2CCN(c3ccc(C(=O)NS(=O)(=O)c4ccc(NCC5CCOCC5)c([N+](=O)[O-])c4)c(Oc4cnc5[nH]ccc5c4)c3)CC2)=C(c2ccc(Cl)cc2)C1 [Venetoclax] + CCN(CCO)CCCOc1ccc2c(Nc3cc(CC(=O)Nc4cccc(F)c4)[nH]n3)ncnc2c1 [AZD2811] (first compound max 1 µM, 7x7, partner max 1 µM) | 0.0007 | 0.0676 | -0.066 | -0.0071 | -0.0793 | 0.0766 | -0.0108 | -0.0066 | -0.0246 | -0.0616 | -0.0351 | 0.0097 | -0.022 | -0.0266 | -0.0113 | -0.0084 | -0.0512 | 0.0583 | 0.0203 | 0.0685
C=CCn1c(=O)c2cnc(Nc3ccc(N4CCN(C)CC4)cc3)nc2n1-c1cccc(C(C)(C)O)n1 [AZD1775] + C[C@@H]1COCCN1C2=NC(=NC(=C2)C3(CC3)[S@](=N)(=O)C)C4=C5C=CNC5=NC=C4 [AZD6738] (first compound max 1 µM, partner max 10 µM) | -0.0949 | 0.0041 | -0.137 | 0.0642 | 0.0427 | -0.0218 | -0.0005 | 0.0418 | -0.0128 | 0.0039 | -0.04 | -0.0053 | -0.0125 | -0.0711 | 0.0822 | -0.051 | -0.008 | -0.0218 | 0.0672 | -0.0105
